Experimental data as given in patent US20200237700A1, “METHODS OF REDUCING OR PREVENTING OXIDATION OF SMALL DENSE LDL OR MEMBRANE POLYUNSATURATED FATTY ACIDS” (Amarin Pharmaceuticals Ireland Limited, priority 2015, published 2020).

Assays:
[1] = Glucose-induced membrane lipid peroxidation (LOOH) in multilamellar vesicles, CHOD-iodide assay (Example 4); type: biochemical; details: for inhibited the peroxidative effects of glucose (LOOH formation): vs glucose alone
Protocol: Vitamin E (α-tocopherol) was also purchased from Sigma-Aldrich and prepared in ethanol at 1.0 mM (ε=3.06×10^4 M^−1 cm^−1 at 294 nm) just prior to experimental use. […] All test compounds were further diluted in ethanol or aqueous buffer as needed. Glucose was prepared in saline buffer (0.5 mM HEPES, 154 mM NaCl, pH 7.3) at 11.0 mM (200 mg/dL). CHOD-iodide color reagent (stock) was prepared, with slight modification, as described by from El-Saadani et al. (J. […] Samples were shell-dried under nitrogen gas and placed under vacuum for 1 h to remove residual solvent. […] Lipid suspensions were then vortexed for 3 min at ambient temperature to form MLVs. All MLV samples were subjected to time-dependent autoxidation by incubating at 37° C. in an uncovered, shaking water bath. This method allows lipid peroxidation to occur gradually without requiring the use of exogenous initiators. Small aliquots (5-100 μL) of each sample were removed, immediately following MLV preparation (0 hour) and after exposing samples to oxidative conditions for 72 or 96 hour, and combined with 1.0 mL of activated CHOD-iodide color reagent. Aliquot volume was reduced with each successive time point to ensure that spectrophotometric readings were within the optimal adsorption range. Test samples were covered and incubated in darkness at room temperature for at least 4 hr. Sample absorbances were then measured against a CHOD blank at 365 nm using a Beckman DU-640 spectrophotometer. The CHOD colorimetric assay is based on the oxidation of iodide (I^−) by lipid hydroperoxide (LOOH) to form triiodide (I3^−), the quantity of which is directly proportional to the amount of LOOH present in the lipid sample. The molar absorptivity (E) of I3^− is 2.46×10^4 M^−1 cm^−1 at 365 nm. […] The concentration of glucose selected was consistent with previous experimental studies of hyperglycemia under controlled laboratory conditions or observed in well-defined animal models of Type II diabetes following a glucose challenge. […] Values in FIG. 1 are mean±S.D. (N=6). EPA inhibited the peroxidative effects of glucose by 88% and 86% at 72 and 96 hours, respectively, which was highly significant (p<0.001) as compared to glucose treatment alone. […] Overall ANOVA-0 hour data: p=0.6655, F=0.4185; 72 hour data: p<0.0001, F=428.72; 96 hour data: p<0.0001, F=322.01.

[2] = system: unfractionated LDL isolated from human plasma; test: Copper-induced oxidation of unfractionated LDL, TBARS (Example 6); type: biochemical; details: 10.0 μM; unfractionated LDL
Protocol: All test compounds were further diluted in ethanol or aqueous buffer as needed. Venous blood was collected from healthy volunteers into vacutainer tubes containing sodium EDTA. […] Plasma and lipoprotein fractions were maintained at 4° C. and protected from excessive exposure to light. Prior to oxidation experiments, EDTA was removed from the lipoprotein fraction using PD-10 desalting columns (GE Healthcare, Piscataway N.J.). After equilibration of the column with phosphate buffered saline (PBS), 2.5 mL of the lipoprotein fraction was loaded on the column and the flow-through discarded. The lipoprotein was then eluted with 3 mL of PBS. The LDL fractions were further diluted with PBS to obtain a 100 μg/mL apoB100 concentration. […] Differences between groups were analyzed using the two-tailed, Student's t-test (for comparisons between only two groups) or ANOVA followed by Dunnett or Student-Newman-Keuls multiple comparisons post-hoc analysis (for comparisons between three or more groups).

[3] = system: HUVECs challenged with oxLDL; test: NO and ONOO− release from HUVECs pretreated with agents, then oxLDL (Example 11, Objective 1); type: cell-based, human; details: pretreated 30 min at 10 μM, then oxLDL 11 mg/dL up to 3 hr, calcium ionophore 1.0 μM
Protocol: The omega-3 fatty acid, cis-5,8,11,14,17-eicosapentaenoic acid (EPA) and docosahexaenoic acid (DHA) were purchased from Sigma-Aldrich (Saint Louis, Mo.) and solubilized in redistilled ethanol to 11 mM under nitrogen atmosphere. EPA and DHA stock solutions were stored at −20° C. until use.
Human umbilical vein endothelial cells (HUVECs) were obtained from healthy, female donors and isolated into primary, proliferating cell cultures (Clonetics, San Diego, Calif.). […] The confluent cells (4 to 5×10^5 cells/35 mm dish) were plated with minimum essential medium containing 3 mM L-arginine and 0.1 mM BH4 [(6R)-5,6,7,8-tetrahydrobiopterin]. Before experimental use, the cells (from second or third passage) were rinsed twice with Tyrode-HEPES buffer with 1.8 mM CaCl2. […]
LDL underwent oxidation following the addition of 10 μM CuSO4. […] Sample TBARS concentrations were determined spectrophotometrically by measuring sample absorbances against a standard curve derived from the hydrolysis of 1,1,3,3-tetramethoxypropane. […]
The amperometric method (with a response time of 0.1 ms) provides a quantitative signal (current) that is directly proportional to changes (from basal levels) in NO or ONOO^− concentration. […] Basal NO or ONOO^− levels were measured by differential pulse voltammetry in separate experiments. […]
NO and ONOO^− release were measured following stimulation with calcium.

| Compound | effect on LOOH formation / lipid peroxidation ([1]; 72- and 96-hour time points, 1:30 drug-to-phospholipid mole ratio, glucose) | inhibited the peroxidative effects of glucose (LOOH formation) ([1]; 72 hours, glucose 200 mg/dL, 1:30 drug-to-phospholipid mole ratio) [%] | inhibited the peroxidative effects of glucose (LOOH formation) ([1]; 96 hours, glucose 200 mg/dL, 1:30 drug-to-phospholipid mole ratio) [%] | antioxidant effects of separate treatments (LOOH formation) ([1]; each at 1.0 μM, glucose 200 mg/dL, 96 hours) | reduced TBARS levels [2] [%] | NO/ONOO− Ratio [3] | NO/ONOO− Ratio ([3]; listed as Niacin) |
| --- | --- | --- | --- | --- | --- | --- | --- |
| CC/C=C\C/C=C\C/C=C\C/C=C\C/C=C\CCCC(=O)O [EPA, cis-5,8,11,14,17-eicosapentaenoic acid] | significantly inhibited LOOH formation | 88 | 86 | potent antioxidant effects | 17 |  |  |
| O=C(O)c1cccnc1 [niacin, nicotinic acid] |  |  |  |  |  | 1.45±0.14 | 1.45 ± 0.14 |
